Results from US11066378B2, “Caffeic acid derivatives for anti-angiogenesis” (Taipei Medical University, priority 2015, dated 2021).

Tests used:
p53-p21 pathway = experiment: p53 and p21 protein levels in HUVECs (immunoblot); assay type: cell-based, human; settings: FIG. 7
Protocol: (§1) The experiments were carried out as described previously (Pan et al., 2010). Briefly, the cells (5×10^5 cells/well) seeded on the 6-well plates and incubated with different concentrations (0.5, 1, and 2 μM) of K20E under normal culture condition for 15 min or 24 h to detect the expression levels of the phosphorylated proteins and the total proteins, respectively. The treated cells were harvested and lysed by using PROPREP® protein extraction solution (#17081; iNtRON Biotechnology, Gyeonggi-Do, South Korea). The cell lysates were further centrifuged at 13000×g at 4° C. for 10 min to collect the supernatants for sodium dodecyl sulfate-polyacrylamide gel electrophoresis (SDS-PAGE). Protein concentration was measured by the Bio-Rad protein assay kit (Bio-Rad, Hercules, Calif., USA) according to the manufacturer's instructions. Aliquots containing 30 μg protein were electrophoresed using 10% slab SDS-PAGE gels and then transferred to PVDF membranes (Immobilon-P™; Millipore, Bedford, Mass., USA). […] The luminescence signal was acquired by Fujifilm LAS-4000 system (San Leandro, Calif., USA) and quantified by using MultiGauge software (v3.0; Fujifilm). […] The relative protein expression was calculated according to the values of the control group (treated with 5% or 10% FBS alone) as 100%.

HUVECs [1] = experiment: Tube formation analysis; assay type: cell-based, human; settings: 8 h, 5% FBS, 0.5, 1 and 2 μM, dose-dependent, FIG. 4
Protocol: The experiments were performed as described previously (Pan et al., 2010). The HUVECs (lx 10^4 cells/well) were seeded on Matrigel-coated wells of a 96-well plate and then incubated with various concentrations (0.5, 1, and 2 μM) of K20E for 8 h. After that, the capillary-like tube formation was observed by light microscopy at 40-fold magnification, and the tube lengths of the capillary mesh were measured to evaluate anti-angiogenic effect of K20E. The tube length of the control group (treated with 5% FBS alone) was defined as 100%.

HUVECs [2] = experiment: Cell cycle analysis by flow cytometry; assay type: cell-based, human; settings: 24 h, FIG. 2E
Protocol: The experiments were performed according to our previous report with minor modifications (Pan et al., 2010). Briefly, the HUVECs (5×10^5 cells/well) were seeded on 6-well plated and harvested after 24 h treatment of K20E (0.5, 1, and 2 μM). Harvested cells were fixed with 70% ice-cold ethanol overnight. Cell pellets were centrifuged (1500 rpm, 5 min, 4° C.) and then re-suspended in 500 μL of DNA staining buffer containing 4 μg/mL propidium iodide, 1% Triton X-100, and 0.5 mg/mL of RNase A. After incubation at 37° C. (water bath) for 30 min in the dark, the cell cycle phase distributions were detected and analyzed by using FACSCanto flow cytometer (BD Biosciences, San Jose, Calif., USA) and ModFit LT Program (Verify Software House, Topsham, Me., USA), respectively.

HUVECs [3] = experiment: Transwell cell migration assay; assay type: cell-based, human; settings: 0.5 μM, 16 h, FIG. 3A
Protocol: For evaluating cell migration, the HUVECs (1×10^5 cells/well) suspended within serum-free culture medium were seeded on inner surface of the upper chamber (ThinCerts™ Cell Culture Inserts with 8 μm pore size; #662638; Greiner Bio-One Inc., Monroe, N.C., USA) placed in the lower chamber (wells of a 24-well plate). For examining the cell invasion, the HUVECs were pre-mixed with equal volume of thawed Matrigel and rapidly seeded on the upper chamber. After 2 h for cell attachment, K20E at different concentrations (0.5, 1, and 2 μM) were added in the upper and the lower chambers, while 5% FBS as a chemoattractant was added in the lower chamber to facilitate cell migration or invasion. After 16 h incubation, the culture medium (or Matrigel) was removed clearly from inside the upper chamber, and the migrated or invasion cells attached on the outer surface of the upper chamber were fixed with 10% formaldehyde for 10 min at RT. The fixed cells were subsequently counterstained with hematoxylin. Relative cell number of each groups was counted from five random regions by light microscopy using a 40-fold magnification. The cell number of the control group (treated with 5% FBS alone) was defined as 100%.

VEGFR-2 = VEGFR-2 expression in HUVECs (immunoblot); assay type: cell-based, human; settings: FIG. 6A
Protocol: as §1

[4] = system: MEK1/2-ERK1/2 and AKT-mTOR signaling pathway; experiment: VEGFR-2 downstream signaling cascades in HUVECs (immunoblot); assay type: cell-based, human; settings: activation level rather than total protein level
Protocol: as §1

[5] = system: VEGF-induced vessel formation within the Matrigel plug; experiment: Matrigel plug assay (VEGF-induced neovascularization); assay type: in vivo, mouse; settings: mice, dose-dependent
Protocol: Male C57BL/6 (average of 6-week-old) mice were divided randomly into four groups (n=3/group): Group 1 (control group; injection with 500 μL cold-Matrigel [#356237; BD Biosciences]), Group 2 (injection with 500 μL cold-Matrigel containing 100 ng/mL VEGF and 100 U/mL heparin), Group 3 (injection with 4 μM […] dissolved in 500 μL cold-Matrigel containing 100 ng/mL VEGF and 100 U/mL heparin), and Group 4 (injection with 8 μM […] dissolved in 500 μL cold-Matrigel containing 100 ng/mL VEGF and 100 U/mL heparin). After 1 week adaptation, the mice were anesthetized and injected subcutaneously with pre-prepared cold-Matrigel gel mentioned above into the left groin region to form jelly-like plug under normal body temperature. The vascular endothelial cells will be attracted by Matrigel plug-released VEGF to form the new vessel within the Matrigel plug, whose process will be suppressed by anti-angiogenic substances added in the Matrigel plugs. After 7 days, the mice were sacrificed and the Matrigel plug was recovered and photographed. The harvested Matrigel plugs were further homogenized in 1× phosphate buffered saline (PBS) and then centrifuged at 10000×g for 10 min at 4° C. The Drabkin's Reagent (#D5941; Sigma-Aldrich, Louis, Mo., USA) was applied for examining the hemoglobin content in the supernatants of the homogenized Matrigel plugs according to the manufacturer's instructions. […]

COC(=O)/C=C/c1cc(OC(C)=O)c2c(c1)[C@H](C(=O)OC)[C@@H](c1ccc(OC(C)=O)c(OC(C)=O)c1)O2 [K20E]
expression level of p21 protein (p53-p21 pathway): dose-dependently increased | expression level of p53 protein (p53-p21 pathway): dose-dependently increased | tube formation of the HUVECs on Matrigel (HUVECs [1]): significantly suppressed | cells in sub-G1 phases (apoptosis) (HUVECs [2]; 0.5 μM): significantly induce cells in sub-G1 phases (apoptosis) | cell cycle arrest in G2/M phase (HUVECs [2]; 1 μM): arrest cells in G2/M phase | 5% FBS-induced migration of the HUVECs (HUVECs [3]): markedly abolished | expression level of intracellular and surface VEGFR-2 (VEGFR-2): markedly down-regulated | MEK1/2-ERK1/2 signaling ([4]; FIG. 6B): suppressed | AKT-mTOR signaling pathway ([4]; FIG. 6C): suppressed | neovessel formation within the Matrigel plug with VEGF ([5]; 4 and 8 μM, not at lower dose (1 and 2 μM), FIG. 1B upper panel): significantly decreased | hemoglobin content of the implanted Matrigel plugs with VEGF ([5]; compared to Matrigel with VEGF alone, FIG. 1B lower panel): obviously diminished
